{"source": "paper PMC6321124", "about": "“Hydrophilic Linear Peptide with Histidine and Lysine Residues as a Key Factor Affecting Antifungal Activity” (International Journal of Molecular Sciences, 2018)", "system": "drug-resistant C. albicans strains (CCARM 14001, 14004, 14007, and 14020)", "type": "cell-based", "conditions": "at 256 µM; CCARM 14001, 14004, 14007, 14020; data not shown", "data": [{"smiles": "OC(Cn1cncn1)(Cn1cncn1)c1ccc(F)cc1F", "note": "[fluconazole]", "values": [{"measurement": "antifungal activity against drug-resistant C. albicans strains", "value": "inactive"}]}]}
